Test results from patent publication US20230011916A1, “METHODS OF CANCER TREATMENT USING ANTI-OX40 ANTIBODIES IN COMBINATION WITH PI3 KINASE DELTA INHIBITORS” (BEIGENE, LTD., priority 2019, published 2023).

Tests used:
Type in all cases: in vivo, mouse
EMT-6 cells = assay: EMT-6 syngeneic breast cancer model in BALB/c mice
Procedure: EMT-6 cells are of murine breast cancer origin. Female BALB/c mice were implanted intramammary with 5×10^4 EMT-6 cells per 100 μL PBS mice in the second right papilla. After inoculation, mice were randomized into 4 groups with 25 animals in each group according to inoculation order.
The mice were treated with vehicle (0.5% MC), OX86 (a murine specific anti-OX40 antibody), Compound 1 (PI3Kdelta inhibitor), and the combination of OX86 and Compound 1, respectively. OX86 was given at 0.4 mg/kg once per week (QW) by intraperitoneal (i.p.) injection, and Compound 1 was administered at 30 mg/kg twice per day (BID) by oral gavage (p.o.). Tumor volume was determined twice weekly and tumor growth inhibition was determined using the formula described in Example 14 above.

A20 cells = assay: A20 syngeneic B cell lymphoma model in BALB/c mice; settings: Compound 1 10 mg/kg p.o.
Procedure: A20 cells are of B cell lymphoma origin. Female BALB/c mice were subcutaneously implanted with 1×10^5 A20 cells in 150 μL PBS mice in the right flank. After inoculation, mice were randomized into 4 groups with 25 animals in each group according to inoculation order. The mice were treated with vehicle (0.5% MC), OX86 (a murine specific anti-OX40 antibody), Compound 1, and the combination of OX86 and Compound 1. OX86 was given at 0.4 mg/kg once a week by intraperitoneal injection, and Compound 1 was administered at 10 mg/kg twice a day by oral gavage. Tumor volume was determined twice weekly and the TGI calculated as described above.

CT26WT cells = assay: CT26WT syngeneic colon carcinoma model in BALB/c mice; settings: Compound 2A 10 mg/kg p.o.
Procedure: CT26WT cells are of colon cancer origin. Female BALB/c mice were subcutaneously implanted with 1×10^5 CT26WT cells in 100 μL PBS in the right flank. After inoculation, mice were randomized into 4 groups according to inoculation order. The mice were treated with vehicle (0.5% MC) as a control. Antibody 1A7.grl (sequence disclosed in US2015/0307617) was confirmed to bind mouse OX40 in house.
[…] Compound 2A was administered as single agent at 10 mg/kg twice a day by oral gavage. The 1A7.gr1 antibody in combination with Compound 2A was administered as combination therapy at the same doses described above for each therapeutic given as a single agent. Tumor volume was determined twice weekly, and the TGI calculated as described above.

[1] = OX86 0.4 mg/kg QW i.p., Compound 1 30 mg/kg BID p.o.

Cc1nc([C@@H](C)c2cc(Cl)c(F)c(C(=O)NCCN3CCN(C)CC3)c2OC(C)C)n2ccnc(N)c12 [Compound 1, (S)-3-(1-(8-amino-1-methylimidazo[1,5-a]pyrazin-3-yl)ethyl)-5-chloro-6-fluoro-2-isopropoxy-N-(2-(4-methylpiperazin-1-yl)ethyl)benzamide]
Mean Tumor Volume on Day 22 (mean ± SEM) (EMT-6 cells; [1]): 758.1 ± 100.6 mm^3 | Tumor Free Animal (EMT-6 cells; [1]): 4% | TGI on Day 22 (EMT-6 cells; OX86 0.4 mg/kg QW×4 i.p., Compound 1 30 mg/kg BID×22 p.o.): 26% | Mean Tumor Volume on Day 26 (mean ± SEM) (A20 cells; OX86 0.4 mg/kg QW i.p.): 683.9 ± 89.7 mm^3 | Tumor Free Animals at Day 47 (A20 cells; OX86 0.4 mg/kg QW i.p.): 0% | TGI on Day 26 (A20 cells; OX86 0.4 mg/kg QW×4 i.p.): 7%

CC(C)Oc1c([C@H](C)c2nc(Cl)c3c(N)nccn23)cc(Cl)c(F)c1-c1ccc(C(F)(F)F)nc1 [Compound 2A, 1-chloro-3-(1-(5-chloro-4-fluoro-2-isopropoxy-3-(6-(trifluoromethyl)pyridin-3-yl)phenyl)ethyl) imidazo[1,5-a]pyrazin-8-amine]
Mean Tumor Volume on Day 25 (mean ± SEM) (CT26WT cells; 1A7.gr1 2 mg/kg QW i.p.): 941.6 ± 207.8 mm^3 | Tumor Free Animals at Day 35 (CT26WT cells; 1A7.gr1 2 mg/kg QW i.p.): 7% | TGI on Day 25 (CT26WT cells; 1A7.gr1 2 mg/kg QW×4 i.p.): 58%
